Measurements: US20170224749A1, “VAGINAL COMPOSITION FOR THE TREATMENT OF UROGENITAL INFECTIONS” (HPRD - HEALTH PRODUCTS RESEARCH AND DEVELOPMENT LDA, priority 2014, published 2017)

Experiments:
G. vaginalis G19 = assay: anti-Gardnerella activity of film dispersions, micromethod (CSLI M45); type: cell-based, Gardnerella vaginalis; design: key: −: absence of bacterial growth; +: presence; settings: lactic acid used for the preparation of formulations (control)
Protocol: (§1) In an embodiment, the antibacterial activity of chitosan films was tested against two Gardnerella vaginalis clinical strains, this being the pathogen most frequently associated with vaginal bacteriosis. […] The antibacterial activity was tested according to the CSLI M45 standard. Controls were performed with VFS and the lactic acid used for the preparation of formulations, as well as growth controls of strains and sterility of the culture medium used. All tests were performed in duplicate. Plates were observed concerning the presence or absence of bacterial growth after 48 h of growth at 37° C. Table 3 represents the results obtained indicating the marked activity of the film since no bacterial growth occurs for 1:4 dilution (second sequential dilution) of the film dispersion in 3 mL of water and VFS. […] The test was performed after incubation of the wells containing the tissue with maintenance medium (commercial), at 37° C. with 5% CO2 atmosphere, in accordance with the recommendations of the supplier. After the incubation period, 17 mg of film were placed over the tissue in each well and added of […] of PBS to allow for dispersion. After the 12 h incubation period, cellular viability was assessed by the MTT test (n=2 wells) and histological analysis was performed. […] Since this formulations was developed to treat an infection, being toxic to bacteria, it wouldn't be expected to totally innocuous for the human tissue. Biocompatibility of chitosan with human tissue has been described and the lactic acid used in this formulation was selected due to the natural occurrence in the vagina. On the other hand, the fact that this formulation is intended for short term treatments, in an altered vaginal environment due to the presence of pathogens, can influence the final effect of the formulation in the tissue of the host.

G. vaginalis G71 = assay: as above; type: cell-based, Gardnerella vaginalis; design: key: −: absence of bacterial growth; +: presence; settings: lactic acid used for the preparation of formulations (control)
Protocol: as §1

Measured: bacterial growth

CC(O)C(=O)O (stereo not shown) [Lactic acid, lactic acid]
−: G. vaginalis G19; dilution 1:2 | G. vaginalis G19; dilution 1:4 | G. vaginalis G71; dilution 1:2 | G. vaginalis G71; dilution 1:4
